Measured values published in patent publication US12338220B2, “Antiviral pyrazolopiridinone compounds” (Novartis AG, priority 2019, dated 2025).
Structures can show the parent of a compound that is named as a salt. Where two headings read alike, the source gives them in different places.

Tests used:
CMV-polymerase = CMV-polymerase (Human cytomegalovirus (strain AD169) (HHV-5) (Human herpesvirus 5), UniProt P08546); experiment: biochemical
CMV = experiment: microbe, parasite or virus in culture; type: cell-based; settings: Human betaherpesvirus 5, 72 h, read-out: CMV-Luc Cellular EC50, NN-NHDF cells, MOI 1, 72 hrs
[1] = read-out: CMV-polymerase Biochemical IC50
[2] = CMV-polymerase Biochemical IC50

COc1cccc(NS(=O)(=O)C2(CN3CCc4c(C(=O)NCc5ccc(C#N)cc5)nn(C)c4C3=O)CC2)n1 [Example 163, N-(4-Cyanobenzyl)-6-((1-(N-(6-methoxypyridin-2-yl)sulfamoyl)cyclopropyl)methyl)-1-methyl-7-oxo-4,5,6,7-tetrahydro-1H-pyrazolo[3,4-c]pyridine-3-carboxamide]
IC50 (CMV-polymerase; [1]): 2 nM | EC50 (CMV): 67 nM

Cc1cccnc1NS(=O)(=O)C1(CN2CCc3c(C(=O)NCc4ccc(C#N)cc4)nn(C)c3C2=O)CC1 [Example 164, N-(4-Cyanobenzyl)-1-methyl-6-((1-(N-(3-methylpyridin-2-yl)sulfamoyl)cyclopropyl)methyl)-7-oxo-4,5,6,7-tetrahydro-1H-pyrazolo[3,4-c]pyridine-3-carboxamide]
IC50 (CMV-polymerase; [1]): 6 nM | EC50 (CMV): 157 nM

Cc1cc(NS(=O)(=O)C2(CN3CCc4c(C(=O)NCc5ccc(Cl)cc5)nn(C)c4C3=O)CC2)no1 [Example 166, N-(4-Chlorobenzyl)-1-methyl-6-((1-(N-(5-methylisoxazol-3-yl)sulfamoyl)cyclopropyl)methyl)-7-oxo-4,5,6,7-tetrahydro-1H-pyrazolo[3,4-c]pyridine-3-carboxamide]
IC50 (CMV-polymerase; [1]): 1 nM | EC50 (CMV): 88 nM

Cn1nc(C(=O)NCc2ccc(C#N)cc2)c2c1C(=O)N(CC1(S(=O)(=O)Nc3cc(C4CC4)on3)CC1)CC2 [Example 167, N-(4-Cyanobenzyl)-6-((1-(N-(5-cyclopropylisoxazol-3-yl)sulfamoyl)cyclopropyl)methyl)-1-methyl-7-oxo-4,5,6,7-tetrahydro-1H-pyrazolo[3,4-c]pyridine-3-carboxamide]
IC50 (CMV-polymerase; [1]): 4 nM | EC50 (CMV): 517 nM

Cn1nc(C(=O)NCc2ccc(C#N)cc2)c2c1C(=O)N(CC1(S(=O)(=O)C3CCOCC3)CC1)CC2 [Example 169, N-(4-Cyanobenzyl)-1-methyl-7-oxo-6-((1-((tetrahydro-2H-pyran-4-yl)sulfonyl)cyclopropyl)methyl)-4,5,6,7-tetrahydro-1H-pyrazolo[3,4-c]pyridine-3-carboxamide]
IC50 (CMV-polymerase; [1]): 14 nM | EC50 (CMV): 201 nM

Cn1nc(C(=O)NCc2ccc(C#N)cc2)c2c1C(=O)N(CC1(S(=O)(=O)C3(C)COC3)CC1)CC2 [Example 172, N-(4-Cyanobenzyl)-1-methyl-6-((1-((3-methyloxetan-3-yl)sulfonyl)cyclopropyl)methyl)-7-oxo-4,5,6,7-tetrahydro-1H-pyrazolo[3,4-c]pyridine-3-carboxamide]
IC50 (CMV-polymerase; [2]): 5 nM | EC50 (CMV): 69 nM

Cn1nc(C(=O)NCc2ccc(C#N)cc2)c2c1C(=O)N(CC1(S(=O)(=O)C3(CO)COC3)CC1)CC2 [Example 173, N-(4-Cyanobenzyl)-6-((1-((3-(hydroxymethyl)oxetan-3-yl)sulfonyl)cyclopropyl)methyl)-1-methyl-7-oxo-4,5,6,7-tetrahydro-1H-pyrazolo[3,4-c]pyridine-3-carboxamide]
IC50 (CMV-polymerase; [1]): 3 nM | EC50 (CMV): 74 nM

Cn1nc(C(=O)NCc2ccc(C#N)cc2)c2c1C(=O)N(CC1(S(=O)(=O)C3(CN)COC3)CC1)CC2 [Example 174, 6-((1-((3-(aminomethyl)oxetan-3-yl)sulfonyl)cyclopropyl)methyl)-N-(4-cyanobenzyl)-1-methyl-7-oxo-4,5,6,7-tetrahydro-1H-pyrazolo[3,4-c]pyridine-3-carboxamide]
IC50 (CMV-polymerase; [2]): 6 nM | EC50 (CMV): 212 nM

COCC(C)(COC)S(=O)(=O)C1(CN2CCc3c(C(=O)NCc4ccc(C#N)cc4)nn(C)c3C2=O)CC1 [Example 179, N-(4-Cyanobenzyl)-6-((1-((1,3-dimethoxy-2-methylpropan-2-yl)sulfonyl)cyclopropyl)methyl)-1-methyl-7-oxo-4,5,6,7-tetrahydro-1H-pyrazolo[3,4-c]pyridine-3-carboxamide]
IC50 (CMV-polymerase; [1]): 2 nM | EC50 (CMV): 49 nM

Cn1nc(C(=O)NCc2ccc(C#N)cc2)c2c1C(=O)N(CC1(S(=O)(=O)C(C)(CN)CO)CC1)CC2 (stereo not shown) [Example 183, 6-((1-((1-Amino-3-hydroxy-2-methylpropan-2-yl)sulfonyl)cyclopropyl)methyl)-N-(4-cyanobenzyl)-1-methyl-7-oxo-4,5,6,7-tetrahydro-1H-pyrazolo[3,4-c]pyridine-3-carboxamide]
IC50 (CMV-polymerase; [1]): 5 nM | EC50 (CMV): 220 nM

Cn1nc(C(=O)NCc2ccc(Cl)cc2)c2c1C(=O)N(CC1(S(=O)(=O)C(C)(C)[C@@H](O)CO)CC1)CC2 [Example 190, (S)—N-(4-Chlorobenzyl)-6-((1-((3,4-dihydroxy-2-methylbutan-2-yl)sulfonyl)cyclopropyl)methyl)-1-methyl-7-oxo-4,5,6,7-tetrahydro-1H-pyrazolo[3,4-c]pyridine-3-carboxamide]
IC50 (CMV-polymerase; [1]): 1 nM | EC50 (CMV): 19 nM

Cn1nc(C(=O)NCc2ccc(Cl)cc2)c2c1C(=O)N(CC1(S(=O)(=O)C(C)(C)[C@H](O)CO)CC1)CC2 [Example 191, (R)—N-(4-Chlorobenzyl)-6-((1-((3,4-dihydroxy-2-methylbutan-2-yl)sulfonyl)cyclopropyl)methyl)-1-methyl-7-oxo-4,5,6,7-tetrahydro-1H-pyrazolo[3,4-c]pyridine-3-carboxamide]
IC50 (CMV-polymerase; [1]): 1 nM | EC50 (CMV): 5 nM

Cn1nc(C(=O)NCc2ccc(C#N)cc2)c2c1C(=O)N(CC1(S(=O)(=O)C(C)(C)[C@@H](O)CO)CC1)CC2 [Example 192, (S)-N-(4-Cyanobenzyl)-6-((1-((3,4-dihydroxy-2-methylbutan-2-yl)sulfonyl)cyclopropyl)methyl)-1-methyl-7-oxo-4,5,6,7-tetrahydro-1H-pyrazolo[3,4-c]pyridine-3-carboxamide]
IC50 (CMV-polymerase; [1]): 1 nM | EC50 (CMV): 35 nM

Cn1nc(C(=O)NCc2ccc(C#N)cc2)c2c1C(=O)N(CC1(S(=O)(=O)C3(C(O)CN)CC3)CC1)CC2 (stereo not shown) [Example 208, 6-((1-((1-(2-Amino-1-hydroxyethyl)cyclopropyl)sulfonyl)cyclopropyl)methyl)-N-(4-cyanobenzyl)-1-methyl-7-oxo-4,5,6,7-tetrahydro-1H-pyrazolo[3,4-c]pyridine-3-carboxamide]
IC50 (CMV-polymerase; [1]): 1 nM | EC50 (CMV): 51 nM

Cn1nc(C(=O)NCc2ccc(Cl)cc2)c2c1C(=O)N(CC1(S(=O)(=O)C3(C(O)CN)CC3)CC1)CC2 (stereo not shown) [Example 209, 6-((1-((1-(2-Amino-1-hydroxyethyl)cyclopropyl)sulfonyl)cyclopropyl)methyl)-N-(4-chlorobenzyl)-1-methyl-7-oxo-4,5,6,7-tetrahydro-1H-pyrazolo[3,4-c]pyridine-3-carboxamide]
IC50 (CMV-polymerase; [1]): 1 nM | EC50 (CMV): 10 nM

Cn1nc(C(=O)NCc2ccc(C#N)cc2)c2c1C(=O)N(CC1(S(=O)(=O)C(C)(C)[C@H](N)CO)CC1)CC2 [Example 213, (R)-6-((1-((3-Amino-4-hydroxy-2-methylbutan-2-yl)sulfonyl)cyclopropyl)methyl)-N-(4-cyanobenzyl)-1-methyl-7-oxo-4,5,6,7-tetrahydro-1H-pyrazolo[3,4-c]pyridine-3-carboxamide]
IC50 (CMV-polymerase; [2]): 2 nM | EC50 (CMV): 81 nM

Cn1nc(C(=O)NCc2ccc(Cl)cc2)c2c1C(=O)N(CC1(S(=O)(=O)C(C)(C)[C@H](N)CO)CC1)CC2 [Example 214, (R)-6-((1-((3-Amino-4-hydroxy-2-methylbutan-2-yl)sulfonyl)cyclopropyl)methyl)-N-(4-chlorobenzyl)-1-methyl-7-oxo-4,5,6,7-tetrahydro-1H-pyrazolo[3,4-c]pyridine-3-carboxamide hydrochloride]
IC50 (CMV-polymerase; [1]): 3 nM | EC50 (CMV): 42 nM
